The values that follow come from PubChem BioAssay AID256 (DTP/NCI, 2004).

SMILES strings stand for the structures. Where “and” joins values, the source holds several entries; their conditions need not be identical. Identical values can stand only once. Inconclusive results and toxic doses are left out.

The experiment concerns CD2F1 mice, L1210 leukemia ip, survival T/C. In words: NCI In Vivo Anticancer Drug Screen. Data for tumor model L1210 Leukemia (intraperitoneal) in CD2F1 (CDF1) mice. To be noted: higher = longer survival. Summed up:
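Read-out first: treated-group measurement over vehicle-control measurement, expressed as a ratio. Animals bore a transplanted tumor line and were dosed with compound or vehicle.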

Setting [1] is: endpoint: mean survival time, dose: 100.0 mg/kg/injection, schedule: Q04DX003 (ip), vehicle: saline with Tween-80.
Where [2] appears, read: endpoint: mean survival time, dose: 200.0 mg/kg/injection, schedule: Q04DX003 (ip), vehicle: saline with Tween-80.
[3] abbreviates: endpoint: mean survival time, dose: 400.0 mg/kg/injection, schedule: Q04DX003 (ip), vehicle: saline with Tween-80.
The mark [4] stands for this setting: endpoint: mean survival time, dose: 50.0 mg/kg/injection, schedule: Q01DX009 (ip), vehicle: saline with Tween-80.
Where [5] appears, read: endpoint: mean survival time, dose: 100.0 mg/kg/injection, schedule: Q01DX009 (ip), vehicle: saline with Tween-80.
The mark [6] stands for this setting: endpoint: mean survival time, dose: 100.0 mg/kg/injection, schedule: Q04DX003 (ip), vehicle: Klucel (hydroxypropylcellulose) (HPC).
[7] abbreviates: endpoint: mean survival time, dose: 200.0 mg/kg/injection, schedule: Q01DX009 (ip), vehicle: saline with Tween-80.
Setting [8] is: endpoint: mean survival time, dose: 100.0 mg/kg/injection, schedule: Q01DX001 (ip), vehicle: saline.
Setting [9] is: endpoint: mean survival time, dose: 75.0 mg/kg/injection, schedule: Q01DX001 (ip), vehicle: other.
The mark [10] stands for this setting: endpoint: mean survival time, dose: 150.0 mg/kg/injection, schedule: Q01DX001 (ip), vehicle: other.
Setting [11] is: endpoint: mean survival time, dose: 300.0 mg/kg/injection, schedule: Q01DX001 (ip), vehicle: other.
Setting [12] is: endpoint: mean survival time, dose: 200.0 mg/kg/injection, schedule: Q01DX001 (ip), vehicle: saline.
[13] abbreviates: endpoint: mean survival time, dose: 400.0 mg/kg/injection, schedule: Q01DX001 (ip), vehicle: saline.
Where [14] appears, read: endpoint: mean survival time, dose: 75.0 mg/kg/injection, schedule: Q01DX001 (ip), vehicle: saline.
[15] abbreviates: endpoint: mean survival time, dose: 400.0 mg/kg/injection, schedule: Q01DX009 (ip), vehicle: saline with Tween-80.

For `Cn1c2ccccc2c2ccc3c(c21)C(=O)C=CC3=O`, the T/C reads like this: (endpoint: median survival time, dose: 12.5 mg/kg/injection, schedule: Q01DX009 (ip), vehicle: Klucel (hydroxypropylcellulose) (HPC)) 100 % of control; (endpoint: median survival time, dose: 25.0 mg/kg/injection, schedule: Q01DX009 (ip), vehicle: Klucel (hydroxypropylcellulose) (HPC)) 102 % of control; (endpoint: median survival time, dose: 50.0 mg/kg/injection, schedule: Q01DX009 (ip), vehicle: Klucel (hydroxypropylcellulose) (HPC)) 109 % of control.
In the case of `CCc1c(C)c(=O)n(C)c2ccccc12`, the T/C is 98 % of control under setting [1], 101 % of control under setting [2] and 102 % of control under setting [3].
As for `CC(Br)C(=O)OC1C=CCCC1` (stereo unspecified), the T/C is 97 % of control under setting [4] and 101 % of control under setting [5].
Regarding `CNC(=S)N/N=C/c1c(Cl)n(-c2ccccc2)c2c(/C=N/NC(=S)NC)cccc12`, the T/C runs as follows: (endpoint: mean survival time, dose: 25.0 mg/kg/injection, schedule: Q04DX003 (ip), vehicle: Klucel (hydroxypropylcellulose) (HPC)) 96 % of control; (endpoint: mean survival time, dose: 50.0 mg/kg/injection, schedule: Q04DX003 (ip), vehicle: Klucel (hydroxypropylcellulose) (HPC)) 93 % of control; under setting [6], 89 % of control.
For `CC1(C)C(CC(=O)O)CC1C(=O)O` (stereo unspecified), the T/C runs as follows: under setting [5], 98 % of control; under setting [1], 100 % of control; under setting [7], 98 % of control; under setting [2], 96 % of control; under setting [3], 100 % of control.
For `CCOC(=O)C1CC1C(=O)OC` (stereo unspecified), the T/C is, setting by setting: under setting [4], 90 % of control; under setting [5], 88 % of control; under setting [7], 92 % of control.
For the compound `Nc1ccc(C(O)(C(F)(F)F)C(F)(F)F)c(C(=O)O)c1`, the T/C runs as follows: (endpoint: mean survival time, dose: 100.0 mg/kg/injection, schedule: Q01DX009 (ip), vehicle: other) 106 % of control; (endpoint: mean survival time, dose: 200.0 mg/kg/injection, schedule: Q01DX009 (ip), vehicle: other) 106 % of control; (endpoint: mean survival time, dose: 400.0 mg/kg/injection, schedule: Q01DX009 (ip), vehicle: other) 102 % of control.
`N/C=N/O`: the T/C (endpoint: mean survival time, dose: 66.0 mg/kg/injection, schedule: Q01DX009 (ip), vehicle: saline) is 112 % of control; the T/C (endpoint: mean survival time, dose: 100.0 mg/kg/injection, schedule: Q01DX009 (ip), vehicle: saline) is 120 % of control and 110 % of control; the T/C (endpoint: mean survival time, dose: 400.0 mg/kg/injection, schedule: Q01DX009 (ip), vehicle: saline) is 114 % of control.
Turning to `CC1(C)CC(=O)C(C)(C)C(=O)C1`, the T/C under setting [8] was 100 % of control.
Take `Cc1ccc(/C=C(/F)OC(C)(C)C)cc1`: the T/C reads like this: (endpoint: mean survival time, dose: 50.0 mg/kg/injection, schedule: Q01DX001 (ip), vehicle: saline with Tween-80) 97 % of control; (endpoint: mean survival time, dose: 100.0 mg/kg/injection, schedule: Q01DX001 (ip), vehicle: saline with Tween-80) 101 % of control; (endpoint: mean survival time, dose: 200.0 mg/kg/injection, schedule: Q01DX001 (ip), vehicle: saline with Tween-80) 100 % of control.
Take `CSc1ccc(N=C/C=C/c2ccccc2)cc1`: the T/C is 93 % of control under setting [1] and 91 % of control under setting [3].
On to `O=C(OCC(I)CC(F)(F)C(F)(F)F)c1ccc2cc(C(=O)OC(I)CC(F)(F)C(F)(F)F)ccc2c1` (stereo unspecified), for which the T/C is, setting by setting: under setting [9], 101 % of control; under setting [10], 91 % of control; under setting [11], 97 % of control.
Regarding `Nc1[nH]c(=S)[nH]c(=O)c1N`, the T/C by setting is: (endpoint: mean survival time, dose: 6.25 mg/kg/injection, schedule: Q04DX002 (ip), vehicle: saline with Tween-80) 102 % of control; (endpoint: mean survival time, dose: 12.5 mg/kg/injection, schedule: Q04DX002 (ip), vehicle: saline with Tween-80) 102 % of control; (endpoint: mean survival time, dose: 25.0 mg/kg/injection, schedule: Q04DX002 (ip), vehicle: saline with Tween-80) 102 % of control.
For the compound `Cc1c(O)c2c(c(O)c1Cc1ccc(C#N)cc1)C(=O)c1ccccc1C2=O`, the T/C reads like this: (endpoint: mean survival time, dose: 12.5 mg/kg/injection, schedule: Q01DX009 (ip), vehicle: Klucel (hydroxypropylcellulose) (HPC)) 91 % of control; (endpoint: mean survival time, dose: 25.0 mg/kg/injection, schedule: Q01DX009 (ip), vehicle: Klucel (hydroxypropylcellulose) (HPC)) 96 % of control; (endpoint: mean survival time, dose: 100.0 mg/kg/injection, schedule: Q01DX009 (ip), vehicle: Klucel (hydroxypropylcellulose) (HPC)) 90 % of control; (endpoint: mean survival time, dose: 200.0 mg/kg/injection, schedule: Q01DX009 (ip), vehicle: Klucel (hydroxypropylcellulose) (HPC)) 94 % of control.
For `CCCC(C)(C)OC(=O)c1ccc([N+](=O)[O-])cc1`, the T/C reads like this: under setting [8], 96 % of control; under setting [12], 98 % of control; under setting [13], 100 % of control.
With `CCCCC(NC(=O)CCl)C(=O)O` (stereo unspecified), the T/C (endpoint: mean survival time, dose: 100.0 mg/kg/injection, schedule: Q04DX002 (ip), vehicle: saline with Tween-80) is 95 % of control and the T/C (endpoint: mean survival time, dose: 200.0 mg/kg/injection, schedule: Q04DX002 (ip), vehicle: saline with Tween-80) was 103 % of control.
As for `Nc1cccc(OCc2nc(N)nc(N)c2-c2ccc(Cl)cc2)c1`, the T/C was 96 % of control (endpoint: mean survival time, dose: 37.5 mg/kg/injection, schedule: Q01DX001 (ip), vehicle: saline); 100 % of control under setting [14]; 91 % of control (endpoint: mean survival time, dose: 150.0 mg/kg/injection, schedule: Q01DX001 (ip), vehicle: saline).
Regarding `C1CC2C3CCC(C3)C2C1` (stereo unspecified), the T/C is 103 % of control under setting [5], 102 % of control under setting [7] and 96 % of control under setting [15].
With `O=C1C=CC(=O)C(c2cn(C3CC(O)C(CO)O3)c(=O)[nH]c2=O)=C1` (stereo unspecified), the T/C (endpoint: median survival time, dose: 12.5 mg/kg/injection, schedule: Q01DX005 (ip), vehicle: saline with Tween-80) was 111 % of control; the T/C (endpoint: median survival time, dose: 25.0 mg/kg/injection, schedule: Q01DX005 (ip), vehicle: saline with Tween-80) was 111 % of control; the T/C (endpoint: median survival time, dose: 50.0 mg/kg/injection, schedule: Q01DX005 (ip), vehicle: saline with Tween-80) is 108 % of control; the T/C (endpoint: median survival time, dose: 100.0 mg/kg/injection, schedule: Q01DX005 (ip), vehicle: saline with Tween-80) is 121 % of control; the T/C (endpoint: median survival time, dose: 200.0 mg/kg/injection, schedule: Q01DX005 (ip), vehicle: saline with Tween-80) is 105 % of control.
With `Cc1cccc(C(=O)CC(O)(C(F)(F)F)C(F)(F)F)c1`, the T/C by setting is: under setting [5], 98 % of control; under setting [7], 95 % of control; under setting [15], 104 % of control.
As to `COC(=O)C(CSCc1ccccc1)NC(=O)C(C)NC(=O)OCc1ccccc1` (stereo unspecified), the T/C under setting [5] was 88 % of control, the T/C under setting [7] is 92 % of control and the T/C under setting [15] was 92 % of control.
`Clc1ccc(OCCCCCNCCSSCCNCCCCCOc2ccc(Cl)cn2)nc1`: the T/C under setting [9] is 101 % of control, the T/C under setting [10] was 103 % of control and the T/C under setting [11] was 106 % of control.
Regarding `CC(C)[NH-].CC(C)[NH-].O.O.[Cl][Pt+2][Cl]`, the T/C runs as follows: (endpoint: mean survival time, dose: 1.5 mg/kg/injection, schedule: Q01DX009 (ip), vehicle: saline) 118 % of control; (endpoint: mean survival time, dose: 1.57 mg/kg/injection, schedule: Q01DX009 (ip), vehicle: saline) 115 % of control; under setting [8], 112 % of control; under setting [12], 90 % of control.
On to `Cc1cccc(Cl)c1OCC1CO1` (stereo unspecified), for which the T/C under setting [8] is 110 % of control, the T/C under setting [12] was 110 % of control and the T/C under setting [13] was 110 % of control.
Take `COc1ccc(C(=O)O)c([N+](=O)[O-])c1`: the T/C was 98 % of control under setting [1], 98 % of control under setting [2] and 98 % of control under setting [3].
On to `Clc1nc2ccccc2nc1CI`, for which the T/C (endpoint: mean survival time, dose: 100.0 mg/kg/injection, schedule: Q04DX003 (ip), vehicle: acetone) is 100 % of control.
`CN=NNc1ccccc1`: the T/C is 117 % of control under setting [14]; 122 % of control (endpoint: mean survival time, dose: 75.0 mg/kg/injection, schedule: Q04DX003 (ip), vehicle: saline with Tween-80); 119 % of control under setting [1]; 153 % of control (endpoint: mean survival time, dose: 150.0 mg/kg/injection, schedule: Q04DX003 (ip), vehicle: saline with Tween-80); 86 % of control (endpoint: mean survival time, dose: 225.0 mg/kg/injection, schedule: Q04DX003 (ip), vehicle: saline with Tween-80).
Regarding `COC(=O)c1ccc(C=O)cc1`, the T/C under setting [6] is 87 % of control; the T/C (endpoint: mean survival time, dose: 200.0 mg/kg/injection, schedule: Q04DX003 (ip), vehicle: Klucel (hydroxypropylcellulose) (HPC)) was 102 % of control; the T/C (endpoint: mean survival time, dose: 400.0 mg/kg/injection, schedule: Q04DX003 (ip), vehicle: Klucel (hydroxypropylcellulose) (HPC)) was 94 % of control.
For `CCN1CCC(C(C)(C)C)CC1`, the T/C (endpoint: mean survival time, dose: 100.0 mg/kg/injection, schedule: Q01DX001 (ip), vehicle: acetone) is 102 % of control.
